The values that follow come from patent US20180305391A1, “COFACTOR ANALOGS AS […] INHIBITORS FOR TREATING CANCER” (MEMORIAL SLOAN-KETTERING CANCER CENTER, priority 2015, published 2018).

Read-outs that look alike come from different tables or passages of the source. A value given as a limit tells only on which side of the number the result lay.

Assay type in all cases: biochemical
In one assay the target is T1, G9a (Homo sapiens, UniProt Q96KQ7).
T1 construct: G9a (913-1913)
T1 sequence (Q96KQ7 913-1193 limits assumed): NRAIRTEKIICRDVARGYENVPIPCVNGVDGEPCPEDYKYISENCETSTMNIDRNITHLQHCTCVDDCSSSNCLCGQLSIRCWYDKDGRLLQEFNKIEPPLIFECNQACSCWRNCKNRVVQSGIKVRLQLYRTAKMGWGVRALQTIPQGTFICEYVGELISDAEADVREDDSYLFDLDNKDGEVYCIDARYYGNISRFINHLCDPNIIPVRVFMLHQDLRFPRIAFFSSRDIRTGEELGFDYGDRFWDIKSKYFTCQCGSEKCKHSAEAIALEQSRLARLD
In words: PMT filter-paper methylation assay, G9a. As to conditions: G9a (913-1913) 20 nM final, H3 (1-21 aa), 1 h.

The target of another assay is T2, GLP1 (Homo sapiens, UniProt Q9H9B1).
T2 construct: GLP1 (951-1235)
T2 sequence (Q9H9B1 982-1266): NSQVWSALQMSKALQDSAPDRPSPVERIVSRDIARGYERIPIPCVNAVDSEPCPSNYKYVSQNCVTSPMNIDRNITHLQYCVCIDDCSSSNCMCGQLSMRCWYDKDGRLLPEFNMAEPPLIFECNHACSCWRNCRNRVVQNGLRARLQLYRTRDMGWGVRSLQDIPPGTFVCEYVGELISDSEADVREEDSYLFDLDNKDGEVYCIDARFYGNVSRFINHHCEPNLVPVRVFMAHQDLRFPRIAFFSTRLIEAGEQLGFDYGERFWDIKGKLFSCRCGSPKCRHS
Briefly: PMT filter-paper methylation assay, GLP1. To be noted: GLP1 (951-1235) 10 nM final, H3 (1-21 aa), 1 h. As to the method: (§1) Methylation Reaction. The 20 μL methylation reaction was carried out at ambient temperature using two mixtures: A. 10 μl of enzyme mixture in the assay buffer containing 50 mM Hepes (pH=8.0), 0.005% Tween-20, 5 μg/ml BSA and 1 mM TCEP; B. 10 μl of a mixture of 1.5 μM, 0.15 μCi [^3H-Me]-SAM cofactor and 3 μM of the corresponding peptide substrate in the same assay buffer. After A and B were mixed for a designated time period, the reaction mixture was examined with our filter-paper assay.
(§2) Filter-paper Assay. This assay relies on Whatman P-81 filter paper, which binds peptides but not SAM. Protein Methyl Transferases (PMTs) transfer ^3H-Me of [^3H-Me]-SAM to peptide substrates and the resultant ^3H-methylated, filter-paper-bound peptide is quantified with a scintillation counter. […] The radioactivity was quantified by a Beckman LS6000IC liquid scintillation counter.
(§3) Dose-response Curves and IC50. […] After incubating the reaction mixture for the respective reaction time, the conversion was quantified with the filter paper assay as described above. The inhibition was expressed as the percentage between the high control (no inhibition) and the low control (no enzyme) as follows: Percentage Inhibition=[(high control−reading)/(high control−low control)]×100%. […]

The target of a further assay is T3, SET7/9 (Homo sapiens, UniProt Q8WTS6).
T3 construct: SET7/9 Full-length
T3 sequence (Q8WTS6 1-366): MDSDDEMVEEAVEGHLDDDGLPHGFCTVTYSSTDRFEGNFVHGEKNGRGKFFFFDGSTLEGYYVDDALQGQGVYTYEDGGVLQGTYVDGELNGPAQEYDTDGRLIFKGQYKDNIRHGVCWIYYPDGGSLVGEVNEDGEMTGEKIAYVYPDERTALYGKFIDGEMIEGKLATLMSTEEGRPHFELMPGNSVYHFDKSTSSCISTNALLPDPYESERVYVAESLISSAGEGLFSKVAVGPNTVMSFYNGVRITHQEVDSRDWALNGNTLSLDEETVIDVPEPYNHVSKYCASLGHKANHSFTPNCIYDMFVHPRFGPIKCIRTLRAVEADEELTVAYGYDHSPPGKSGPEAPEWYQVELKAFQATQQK
Briefly: PMT filter-paper methylation assay, SET7/9. To be noted: SET7/9 full-length 150 nM final, H3 (1-21 aa), 3 h. As to the method:
as §1, §2, §3

The next assay deals with T4, SET8 (Homo sapiens, UniProt Q9NQR1).
T4 construct: SET8 (191-352)
T4 sequence (Q9NQR1 191-352 isoform Q9NQR1-2): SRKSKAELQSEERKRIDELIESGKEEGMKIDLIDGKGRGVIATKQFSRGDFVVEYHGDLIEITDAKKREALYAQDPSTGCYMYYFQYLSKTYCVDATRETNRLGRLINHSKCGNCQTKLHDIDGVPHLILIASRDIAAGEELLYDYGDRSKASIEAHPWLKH
In words: PMT filter-paper methylation assay, SET8. As to conditions: SET8 (191-352) 1000 nM final, H4 (10-30 aa), 8 h. As to the method: as §1, §2, §3

The target of another assay is T5, SETD2 (Homo sapiens, UniProt Q9BYW2).
T5 construct: SETD2 (1347-1711)
T5 sequence (Q9BYW2 1347-1711): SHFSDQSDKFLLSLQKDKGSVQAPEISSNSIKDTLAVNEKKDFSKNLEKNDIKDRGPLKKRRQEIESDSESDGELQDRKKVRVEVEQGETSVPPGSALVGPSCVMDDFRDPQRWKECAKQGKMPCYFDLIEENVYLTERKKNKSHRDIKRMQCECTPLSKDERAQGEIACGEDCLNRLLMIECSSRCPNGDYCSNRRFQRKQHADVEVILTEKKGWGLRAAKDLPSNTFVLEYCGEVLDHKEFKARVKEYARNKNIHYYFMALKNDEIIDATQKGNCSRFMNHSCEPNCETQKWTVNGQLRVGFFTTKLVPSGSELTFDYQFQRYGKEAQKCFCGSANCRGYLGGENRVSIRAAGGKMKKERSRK
In words: PMT filter-paper methylation assay, SETD2. As to conditions: SETD2 (1347-1711) 250 nM final, H3 (20-50 aa), 4 h. As to the method: as §1, §2, §3

The next assay deals with T6, PRMT1 (Homo sapiens, UniProt Q99873).
T6 construct: PRMT1 (10-352)
T6 sequence (Q99873 10-352 isoform Q99873-3): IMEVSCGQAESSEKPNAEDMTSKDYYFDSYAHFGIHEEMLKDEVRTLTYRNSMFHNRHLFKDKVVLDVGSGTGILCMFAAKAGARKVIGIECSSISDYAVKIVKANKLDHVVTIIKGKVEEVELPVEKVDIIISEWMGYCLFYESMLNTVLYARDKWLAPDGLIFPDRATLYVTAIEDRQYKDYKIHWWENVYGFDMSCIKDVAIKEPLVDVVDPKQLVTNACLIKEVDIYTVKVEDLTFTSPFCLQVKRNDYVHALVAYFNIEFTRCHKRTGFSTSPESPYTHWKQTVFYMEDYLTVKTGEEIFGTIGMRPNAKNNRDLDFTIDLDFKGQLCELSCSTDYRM
In words: PMT filter-paper methylation assay, PRMT1. To be noted: PRMT1 (10-352), 100 nm, RGG substrate, 1.5 h.

The next assay deals with T7, PRMT3 (Homo sapiens, UniProt O60678).
T7 construct: PRMT3 (211-531)
T7 sequence (O60678 211-531): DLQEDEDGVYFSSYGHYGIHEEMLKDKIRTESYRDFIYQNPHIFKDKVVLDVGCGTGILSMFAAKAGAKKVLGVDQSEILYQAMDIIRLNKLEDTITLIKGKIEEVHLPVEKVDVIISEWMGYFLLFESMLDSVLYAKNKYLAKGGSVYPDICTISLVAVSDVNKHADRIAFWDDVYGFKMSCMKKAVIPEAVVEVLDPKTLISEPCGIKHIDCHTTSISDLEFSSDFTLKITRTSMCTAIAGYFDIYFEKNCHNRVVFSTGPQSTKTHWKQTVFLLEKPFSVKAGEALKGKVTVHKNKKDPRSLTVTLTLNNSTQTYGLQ
Briefly: PMT filter-paper methylation assay, PRMT3. To be noted: PRMT3 (211-531) 100 nM final, RGG, 3 h.

For a further assay, the target named is T8, SUV39H2 (Homo sapiens, UniProt Q9H5I1).
T8 construct: SUV39H2 (112-410)
T8 sequence (Q9H5I1 112-410): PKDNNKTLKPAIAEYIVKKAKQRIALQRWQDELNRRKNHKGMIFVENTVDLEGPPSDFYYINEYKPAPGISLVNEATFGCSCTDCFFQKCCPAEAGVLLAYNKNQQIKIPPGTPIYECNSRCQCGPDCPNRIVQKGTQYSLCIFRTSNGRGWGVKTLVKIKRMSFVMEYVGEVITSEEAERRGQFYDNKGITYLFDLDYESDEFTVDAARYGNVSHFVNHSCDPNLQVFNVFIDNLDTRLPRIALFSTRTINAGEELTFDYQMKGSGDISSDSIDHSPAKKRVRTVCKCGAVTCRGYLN
In words: PMT filter-paper methylation assay, SUV39H2. To be noted: SUV39H2 (112-410) 5 nM final, H3 (1-21 aa), 4 h.

Another assay addresses T9, CARM1 (Homo sapiens, UniProt Q86X55).
T9 construct: CARM1 (19-608)
T9 sequence (Q86X55 19-608): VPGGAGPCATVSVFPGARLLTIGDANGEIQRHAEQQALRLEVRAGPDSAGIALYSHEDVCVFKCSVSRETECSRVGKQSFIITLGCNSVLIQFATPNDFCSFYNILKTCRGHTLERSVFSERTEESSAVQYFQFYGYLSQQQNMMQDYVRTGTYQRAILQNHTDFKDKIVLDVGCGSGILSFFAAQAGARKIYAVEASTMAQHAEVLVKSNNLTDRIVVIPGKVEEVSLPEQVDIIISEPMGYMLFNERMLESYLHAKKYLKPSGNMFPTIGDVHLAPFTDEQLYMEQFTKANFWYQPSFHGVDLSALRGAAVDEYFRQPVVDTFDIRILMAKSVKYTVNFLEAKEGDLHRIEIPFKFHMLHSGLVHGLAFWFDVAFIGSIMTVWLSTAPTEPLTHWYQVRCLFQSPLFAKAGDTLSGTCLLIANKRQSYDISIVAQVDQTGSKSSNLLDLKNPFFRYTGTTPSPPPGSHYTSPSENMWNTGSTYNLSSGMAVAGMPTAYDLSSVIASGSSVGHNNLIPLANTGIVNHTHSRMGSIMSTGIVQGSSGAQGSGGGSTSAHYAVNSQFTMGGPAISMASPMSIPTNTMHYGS
Briefly: PMT filter-paper methylation assay, CARM1. To be noted: H3 (1-40 aa), 7 h.

Another assay concerns the target T10, SMYD2-FL (Homo sapiens, UniProt Q9NRG4).
T10 construct: SMYD2 Full-length
In words: PMT filter-paper methylation assay, SMYD2. As to conditions: SMYD2 full-length 50 nM final, p53 (360-393 aa), 10 h. As to the method: as §1, §2, §3

For the next assay, the target named is T11, SMYD3 (Homo sapiens, UniProt Q9H7B4).
T11 sequence (Q9H7B4 1-428): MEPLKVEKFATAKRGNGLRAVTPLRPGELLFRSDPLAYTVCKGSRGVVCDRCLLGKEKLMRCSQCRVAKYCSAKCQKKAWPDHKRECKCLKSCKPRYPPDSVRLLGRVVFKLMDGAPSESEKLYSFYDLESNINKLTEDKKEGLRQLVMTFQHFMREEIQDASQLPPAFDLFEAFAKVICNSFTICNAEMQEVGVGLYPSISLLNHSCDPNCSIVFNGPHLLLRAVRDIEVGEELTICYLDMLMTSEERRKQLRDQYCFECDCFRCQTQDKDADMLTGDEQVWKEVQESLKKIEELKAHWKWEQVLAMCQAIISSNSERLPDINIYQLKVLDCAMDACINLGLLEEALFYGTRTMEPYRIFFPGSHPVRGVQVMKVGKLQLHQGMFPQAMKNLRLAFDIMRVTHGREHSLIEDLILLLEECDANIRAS
Briefly: PMT filter-paper methylation assay, SMYD3. As to conditions: SMYD3 125 nM final, MAP3K2 (1-350 aa), 2 h. As to the method:
as §1, §2, §3

A further assay has as its target PRMT8 (Homo sapiens, UniProt Q9NR22). In words: PMT filter-paper methylation assay, PRMT8. As to the method:
as §1, §2, §3

The next assay deals with MLL1 (Homo sapiens, UniProt Q03164). Briefly: PMT filter-paper methylation assay, MLL1. On the procedure: as §1, §2, §3

T10 sequence (Q9NRG4 whole entry): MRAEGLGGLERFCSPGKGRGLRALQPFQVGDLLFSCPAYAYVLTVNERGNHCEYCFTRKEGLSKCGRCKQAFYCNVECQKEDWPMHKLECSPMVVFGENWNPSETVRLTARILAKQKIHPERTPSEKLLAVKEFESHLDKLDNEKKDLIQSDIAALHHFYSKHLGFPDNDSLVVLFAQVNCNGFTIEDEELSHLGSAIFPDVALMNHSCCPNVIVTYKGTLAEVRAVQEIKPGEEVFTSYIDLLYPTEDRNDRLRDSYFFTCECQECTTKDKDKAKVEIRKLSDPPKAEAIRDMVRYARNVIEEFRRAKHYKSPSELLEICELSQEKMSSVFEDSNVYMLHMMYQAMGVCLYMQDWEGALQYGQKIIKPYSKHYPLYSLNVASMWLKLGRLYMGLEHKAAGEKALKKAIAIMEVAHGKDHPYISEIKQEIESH
Chain of PRMT8 (Q9NR22 whole entry): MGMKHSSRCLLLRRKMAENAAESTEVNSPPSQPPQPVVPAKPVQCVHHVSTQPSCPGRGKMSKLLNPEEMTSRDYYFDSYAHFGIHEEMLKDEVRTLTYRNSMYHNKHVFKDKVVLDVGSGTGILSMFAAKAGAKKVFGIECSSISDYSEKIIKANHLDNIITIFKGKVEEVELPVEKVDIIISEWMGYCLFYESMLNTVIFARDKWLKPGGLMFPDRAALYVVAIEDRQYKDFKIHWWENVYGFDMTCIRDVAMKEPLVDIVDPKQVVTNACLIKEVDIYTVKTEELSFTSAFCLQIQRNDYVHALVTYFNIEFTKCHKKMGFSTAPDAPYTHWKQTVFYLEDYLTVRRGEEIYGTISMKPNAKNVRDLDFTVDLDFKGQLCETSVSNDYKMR

Take `CC(C)(C)c1ccc(NC(=O)NCCC[C@H](CNCc2ccccc2)C[C@H]2O[C@@H](n3cnc4c(N)ncnc43)C(O)C2O)cc1` (some centres unmarked) [Example 104]: the IC50 at G9a is over 50 µM; against GLP1, over 50 µM; against SET7/9, over 50 µM; against SET8 it was over 50 µM; at SETD2, 45 µM; against PRMT1 it was over 50 µM. Besides, the IC50 against PRMT3 was over 50 µM; on SUV39H2, over 50 µM; on CARM1 (CARM1 (19-608)^a 300 nM final enzyme, read-out: IC50 CARM1^a), 0.3 µM; on CARM1 (CARM1 (19-608)^b 25 nM final enzyme, read-out: IC50 CARM1^b), 0.05 µM; on SMYD2-FL, over 50 µM; at SMYD3, over 50 µM. In addition, the values for the IC50 against PRMT8 and against MLL1 were over 50 µM and 4.5 µM, respectively.
